The source of these data is patent US8063225B2, “Tricyclic compound derivatives useful in the treatment of neoplastic diseases, inflammatory disorders and immunomodulatory disorders” (Chembridge Corporation, priority 2006, dated 2011).

Usually IC50 stands for the concentration that gives 50% inhibition. Higher therefore signals weaker potency.

Structures are written as SMILES.

The target of one assay is T1, IGF1R tyrosine kinase (Homo sapiens, UniProt P08069).
T1 construct: 6×His- or GST-tagged kinase domain fragments of the corresponding RTKs expressed in baculovirus system; host or cells: baculovirus system
T1 sequence (P08069 999-1274 limits assumed): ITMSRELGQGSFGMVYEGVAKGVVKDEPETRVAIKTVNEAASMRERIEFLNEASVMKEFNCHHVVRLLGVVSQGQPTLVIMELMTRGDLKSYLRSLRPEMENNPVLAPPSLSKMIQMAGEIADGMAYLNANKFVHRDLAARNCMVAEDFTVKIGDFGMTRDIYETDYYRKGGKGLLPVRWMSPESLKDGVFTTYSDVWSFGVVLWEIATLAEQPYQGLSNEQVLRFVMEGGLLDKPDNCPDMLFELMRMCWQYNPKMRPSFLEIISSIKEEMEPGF
The experiment in a line: IGF1R tyrosine kinase assay (Kinase-Glo ATP depletion or PT66/PT100 AlphaScreen). As to conditions: biochemical tyrosine kinase assay. The procedure, abridged: (§1)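 In the AlphaScreen version, kinase domain, biotinylated poly(Glu-Tyr) and 10 μM ATP react 30 minutes at room temperature, then PT66 or PT100 beads are added for a further 60 minutes. Buffer is Tris-HCl pH 7.5 with MgCl2, MnCl2, DTT and Tween 20.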

Another assay addresses T2, InsR (Homo sapiens, UniProt P06213).
T2 construct: 6×His- or GST-tagged kinase domain fragments of the corresponding RTKs expressed in baculovirus system; host or cells: baculovirus system
Nature of the assay: Tyrosine kinase assay (Kinase-Glo or AlphaScreen), InsR. As to conditions: biochemical tyrosine kinase assay. The procedure, abridged: as §1
On the technique in general: Kinase-Glo measures the ATP left after a reaction by luminescence.

Another assay concerns the target T3, Alk (Homo sapiens, UniProt Q9UM73).
T3 construct: 6×His- or GST-tagged kinase domain fragments of the corresponding RTKs expressed in baculovirus system; host or cells: baculovirus system
The experiment in a line: Tyrosine kinase assay (Kinase-Glo or AlphaScreen), Alk. As to conditions: biochemical tyrosine kinase assay. The procedure, abridged:
as §1

A further assay concerns the target T4, Jak2 (Homo sapiens, UniProt O60674).
T4 construct: 6×His- or GST-tagged kinase domain fragments of the corresponding RTKs expressed in baculovirus system; host or cells: baculovirus system
The experiment in a line: Tyrosine kinase assay (Kinase-Glo or AlphaScreen), Jak2. As to conditions: biochemical tyrosine kinase assay. The procedure, abridged: as §1

For the next assay, the target named is T5, IGF1 receptor (Homo sapiens, UniProt P08069).
T5 construct: MCF7 human breast cancer cells expressing IGF1 receptor; endogenous in cells; host or cells: MCF7 human breast cancer cells
T5 sequence (P08069 741-1367 limits assumed): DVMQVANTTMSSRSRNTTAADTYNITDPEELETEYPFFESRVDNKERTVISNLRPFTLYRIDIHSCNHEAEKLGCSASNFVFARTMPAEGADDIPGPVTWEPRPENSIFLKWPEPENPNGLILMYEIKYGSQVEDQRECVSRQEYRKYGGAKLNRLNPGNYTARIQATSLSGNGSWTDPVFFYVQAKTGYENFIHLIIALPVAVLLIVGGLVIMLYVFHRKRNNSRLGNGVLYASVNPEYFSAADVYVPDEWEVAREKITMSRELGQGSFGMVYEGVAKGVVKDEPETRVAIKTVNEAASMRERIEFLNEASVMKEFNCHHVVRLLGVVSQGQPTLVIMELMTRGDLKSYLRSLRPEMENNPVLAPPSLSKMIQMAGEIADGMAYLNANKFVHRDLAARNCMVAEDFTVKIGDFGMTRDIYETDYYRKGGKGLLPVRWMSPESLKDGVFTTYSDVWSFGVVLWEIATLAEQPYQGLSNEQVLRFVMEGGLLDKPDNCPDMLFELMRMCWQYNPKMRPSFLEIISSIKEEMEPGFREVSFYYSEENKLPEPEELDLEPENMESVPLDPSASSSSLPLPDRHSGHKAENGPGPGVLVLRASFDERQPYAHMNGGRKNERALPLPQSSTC
T5 sequence (P08069 31-736 partner limits assumed): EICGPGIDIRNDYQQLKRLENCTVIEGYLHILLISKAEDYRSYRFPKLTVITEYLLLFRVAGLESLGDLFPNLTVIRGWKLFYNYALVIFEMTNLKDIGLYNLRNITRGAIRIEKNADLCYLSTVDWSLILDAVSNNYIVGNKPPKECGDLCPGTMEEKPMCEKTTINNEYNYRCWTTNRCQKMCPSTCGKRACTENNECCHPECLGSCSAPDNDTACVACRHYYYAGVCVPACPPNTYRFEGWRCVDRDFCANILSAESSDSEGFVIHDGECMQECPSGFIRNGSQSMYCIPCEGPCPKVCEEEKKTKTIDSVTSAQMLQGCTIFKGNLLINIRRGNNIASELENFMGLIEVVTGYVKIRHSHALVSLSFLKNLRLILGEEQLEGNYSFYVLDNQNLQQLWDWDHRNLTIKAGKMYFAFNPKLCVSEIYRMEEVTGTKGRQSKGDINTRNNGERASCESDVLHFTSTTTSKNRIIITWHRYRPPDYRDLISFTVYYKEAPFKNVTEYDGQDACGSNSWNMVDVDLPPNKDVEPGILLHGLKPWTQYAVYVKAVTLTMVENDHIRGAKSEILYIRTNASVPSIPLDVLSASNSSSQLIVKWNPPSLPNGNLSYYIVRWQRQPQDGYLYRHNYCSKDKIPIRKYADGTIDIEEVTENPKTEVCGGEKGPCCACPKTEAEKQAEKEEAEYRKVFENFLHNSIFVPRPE
Nature of the assay: ELISA-based assay of IGF1 receptor autophosphorylation inhibition in cells. Type of assay: cell-based. As to conditions: IGF1R phosphorylation inhibition in MCF7 cells. Here is the method: In another embodiment, compounds that interact with the IGF1R kinase domain are tested in a cell-based assay system. In accordance with this embodiment, cells expressing a full-length IGF1 receptor or a fragment thereof containing the IGF1R kinase domain, are contacted with a candidate or a control compound and the ability of the compound to block tyrosine kinase activity of IGF1R within a cell is determined. This assay may be used to screen a single compound or a large library of candidate compounds. Typically, the cells or cell lines are of mammalian origin and they can express the IGF1 receptor, or functional IGF1R kinase domain fragment, endogenously or be genetically engineered to express the IGF1R, or functional fragment thereof. The ability of the candidate compound to inhibit IGF1R kinase activity can be determined by methods known to those skilled in the art. For example, the inhibition can be determined by ELISA-type assay or Western blot analysis with cell lysates or immunoprecipitated IGF1R receptor using various anti-IGF1R and anti-phosphotyrosine antibodies.
In general, cells expressing IGF1R are treated with modulators (i.e., inhibitors or activators) of IGF1R kinase activity and cell lysates are produced from these treated cells. IGF1Rs are isolated from the lysate by immunoprecipitation and analyzed for phosphotyrosine content. Alternatively, or in addition, cellular protein substrates phosphorylated by IGFR may be immunoprecipitated from the lysates and their degree of tyrosine phosphorylation determined.
MCF7 human breast cancer cells expressing IGF1 receptor or an engineered […] fibroblast cell line NIH 3T3 overexpressing full-length IGF1R are an exemplary cellular models in which to perform such assays. Such cells may be maintained in DMEM medium supplemented with 10% fetal bovine serum (FBS), 4% L-glutamine, 1% antibiotic solution (penicillin-Streptomycin) in a humidified atmosphere of 95% air and 5% CO2 at 37° C. Confluent cells in T175 cell culture flasks are incubated overnight with serum-free DMEM medium. After the serum starvation step, the cells are detached and split into a standard 96-well cell culture plate (one T175 flask per plate, 30 μl of cell suspension per plate well). Tested inhibitors from their 10 mM stock solutions in DMSO are subsequently added at various concentrations in serum-free DMEM medium for 1 hour incubation at 37° C. in CO2-incubator; total DMSO concentration in both treated and control wells is adjusted to 1%. Cells are then stimulated for 10 minutes with 100 nM IGF-1 added in 30 μl DMEM. After treatment, cells are lysed by addition of 30 μl of 4× lysis buffer (phosphate-buffered saline (PBS), 2% Triton-X100, 1 mM phenylmethylsulphonyl fluoride (PMSF) and 8 mM activated orthovanadate), mixing and incubation for 15 minute at room temperature. To prepare assay plates, 96-well ELISA Plates (Pierce Chemical, Reacti-bind plates) were coated by goat-anti-rabbit Fc antiserum by adding 0.25 μg antiserum per well in 0.2M sodium bicarbonate buffer per well and incubating overnight at 4° C. After incubation, the plate is washed three times by PBS with 0.02% Tween-20, supplied with 25 ng/50 μl per well of anti-IGF1R antibody (C-20, Santa Cruz Biotechnology) and incubated for several hours to overnight. Prior to the addition of the prepared cellular lysates, the antibody solution is aspirated, wells washed with PBS and supplied with 25 μl per well of Starting Block buffer (Pierce Chemical).
To measure tyrosine phosphorylation of the beta-subunits of the IGF1R, 25-50 μl of the lysates are transferred from the stimulation plate to the wells of the prepared assay plate and incubated overnight at 4° C. The wells are washed with PBS with 0.02% Tween-20, incubated with 50 μl of 1:3000 dilution of anti-phosphotyrosine 4G10-HRP antibody conjugate (Upstate Biotechnology) for 2 hours at room temperature and washed again. […]
(In general: An ELISA detects its analyte on a solid surface through an enzyme-linked reagent.)

T2 sequence (P06213 1023-1298 limits assumed, species assumed): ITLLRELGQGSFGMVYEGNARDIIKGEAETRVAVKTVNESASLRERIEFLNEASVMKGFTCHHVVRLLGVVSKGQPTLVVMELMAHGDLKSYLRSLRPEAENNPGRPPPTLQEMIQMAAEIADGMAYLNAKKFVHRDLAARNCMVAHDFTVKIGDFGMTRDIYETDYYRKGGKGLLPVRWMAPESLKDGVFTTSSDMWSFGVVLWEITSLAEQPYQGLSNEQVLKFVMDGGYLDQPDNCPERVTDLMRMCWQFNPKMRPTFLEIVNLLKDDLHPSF
T3 sequence (Q9UM73 1116-1392 limits assumed, species assumed): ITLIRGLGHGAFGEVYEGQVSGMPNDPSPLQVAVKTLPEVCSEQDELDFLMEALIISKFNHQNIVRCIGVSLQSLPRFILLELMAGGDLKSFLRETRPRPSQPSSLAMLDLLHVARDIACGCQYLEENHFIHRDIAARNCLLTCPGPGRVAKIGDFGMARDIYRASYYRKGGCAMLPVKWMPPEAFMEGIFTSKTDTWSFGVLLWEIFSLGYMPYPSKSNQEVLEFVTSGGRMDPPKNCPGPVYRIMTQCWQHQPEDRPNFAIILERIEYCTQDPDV
T4 sequence (O60674 849-1124 limits assumed, species assumed): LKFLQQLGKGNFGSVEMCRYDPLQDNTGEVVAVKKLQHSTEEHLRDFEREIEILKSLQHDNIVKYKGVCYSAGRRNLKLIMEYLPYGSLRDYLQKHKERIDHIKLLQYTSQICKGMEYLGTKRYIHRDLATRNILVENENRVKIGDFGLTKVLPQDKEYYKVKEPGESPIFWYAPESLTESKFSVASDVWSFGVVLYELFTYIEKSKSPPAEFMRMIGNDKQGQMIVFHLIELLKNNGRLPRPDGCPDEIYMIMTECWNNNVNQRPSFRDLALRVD

`CN1CCC(N2C(=O)c3cc4nc(-c5c(NC[C@@H](O)COc6ccc(F)cc6)cc[nH]c5=O)[nH]c4cc3C2=O)CC1` [compound 21]: the IC50 fell in the range of 0.5 to 5 µM at IGF1R tyrosine kinase; 0.5 to 5 µM at InsR; 0.5 to 5 µM against Alk; 0.5 to 5 µM at Jak2; 5 to 15 µM at IGF1 receptor.

In the case of `CN1CCC(N2C(=O)c3cc4nc(-c5c(NCC(O)COc6ccc(C(C)(C)C)cc6)cc[nH]c5=O)[nH]c4cc3C2=O)CC1` (centres unmarked) [compound 14], the half-maximal inhibitory concentration (IC50) was 0.5 to 5 µM at IGF1R tyrosine kinase; 0.5 to 5 µM against InsR; above 15 µM against Alk; 0.5 to 5 µM at Jak2; 0.5 to 5 µM on IGF1 receptor.

`CN1CCN(CCN2C(=O)c3cc4nc(-c5c(NC[C@@H](O)c6cccc(Cl)c6)cc[nH]c5=O)[nH]c4cc3C2=O)CC1` [compound 20]: the IC50 against IGF1R tyrosine kinase was 0.5 to 5 µM; against InsR, 0.5 to 5 µM; on Alk, 0.5 to 5 µM; against Jak2, 0.5 to 5 µM; on IGF1 receptor, above 15 µM.

As to `O=C1NC(=O)c2cc3[nH]c(-c4c(NC[C@@H](O)c5cccc(Cl)c5)cc[nH]c4=O)nc3cc21` [compound 11], the IC50 was above 15 µM against IGF1R tyrosine kinase; 5 to 15 µM on InsR; 5 to 15 µM against Alk; 5 to 15 µM against Jak2; 0.5 to 5 µM on IGF1 receptor.
